The values below come from US11771737B2, “Treating or preventing adverse liver conditions” (priority 2017, dated 2023).

Test [1] concerns CXCL16. Description: CXCL16 mRNA in SK-HEP1 cells administered bile acids. The test is classed as cell-based, human. Conditions: 24 hours. The text has this: FIG. 34A is a dot plot showing CXCL16 mRNA levels measured by real-time PCR in SK-HEP1 cells administered different bile acids, in accordance with embodiments of the invention. n=6, p<0.05, one-way ANOVA.
(§1) Primary mice liver sinusoidal endothelia cells were isolated as previously described (Limmer et al., Nat. Med., 6: 1348-1354 (2000), incorporated by reference herein). Briefly, mice were CO2 euthanized, and then the portal vein was cannulated, and the liver was perfused with 0.05% collagenase in Ca^2+ deprived medium. Liver cells were dissociated, and parenchymal cells were killed by incubation in 0.04% collagenase in Gey's balanced salt solution at 37° C. for 15 minutes. Then density gradient centrifugation was performed using Nycodenz solution at the final solution of 1.089 g/cm^3. Liver sinusoidal endothelial cells (LSEC) were isolated using anti-LSEC microbeads (Miltenyi, Bergisch Gladbach, Germany) according to the manufacturer's instructions. LSECs or the human SK-HEP1 cell line (ATCC, HTB-52) were administered different bile acids for 24 hours. Gene expression was analyzed by real-time PCR. Taurocholic acid (TCA), chenodeoxycholic acid (CDCA), deoxycholic acid (DCA), and taurodeoxycholic acid (TDCA) were purchased from Sigma (now Millpore-Sigma, St. Louis, Mo., USA). […]

Test [2] concerns hepatic NKT cells. The test is described as follows: In vivo bile acids feeding, hepatic NKT cell levels. Particulars: ABX-administered mice, oral gavage 6 mg/15 g body weight at 48, 24 and 16 hrs.
Excerpt: Mice were kept on ABX cocktail and fresh ABX was replaced every other day. Mice were fed with bile acids by oral gavage 48, 24 and 16 hrs prior to sacrifice.
Test [3] relates to hepatic NKT cells. The test is described as follows: Flow cytometry of liver and spleen immune cell subsets of treated mice. The class given is in vivo. Conditions: single antibiotic; for hepatic CD4+ or CD8+ T cells: FIGS. 29H and 29I; for hepatic NKT cells: naïve C57BL/6 mice. As to the method:
Cells were surface-labelled with the indicated antibodies for 15 min at 4° C. Intracellular staining using a Foxp3/transcription factor staining buffer set (eBioscience, now part of ThermoFisher Scientific, Waltham, Mass., USA) was used according the manufacturer's instructions. Flow cytometry was performed on a BD LSRFortessa platform (BD Biosciences, San Jose, Calif., USA) and results were analyzed using FlowJo software version 9.3.1.2 (TreeStar, Ashland, Oreg., USA). Dead cells were excluded by using live/dead fixable near-IR dead cell staining kit (ThermoFisher Scientific).
The following antibodies were used for flow cytometry analysis: anti-TCRβ-BV510 (clone H57-587, Biolegend, San Diego, Calif., USA), PBS57/CD1d-tetramer-APC (NIH core facility, Bethesda, Md., USA), anti-CXCR6-FITC (clone SA051D1, Biolegend), anti-CD3-PE (clone 17A2, Biolegend), anti-CD4-PE (clone RM4-5, Biolegend), anti-CD4-Alexa Fluor 700 (clone GK1.5, Biolegend), anti-CD8-BV210 (clone 53-61 Biolegend), anti-CD19-PerCP/Cy5.5 (clone eBiolD3, eBioscience), anti-CD49b (clone DX5, eBioscience), anti-TCRγ/δ-PE, (clone GL3, BD pharmingen, BD Biosciences), anti-CD11b-BV421 (clone M1/70, Biolegend), anti-Ly6G-Alexa Fluor 700 (clone 1A8, Biolegend), anti-Ly6C-APC (clone HK1.4, Biolegend), anti-CD44-PE/Cy7 (clone IM7, eBioscience), anti-CD62L-PerCP/Cy5.5 (MEL-14, Biolegend), anti-CD69-Pacific blue (clone H1.2F3, Biolegend), anti-CD25-FITC (clone 7D4, BD pharmingen), anti-4-1BB-PE (clone 17B5, Biolegend), anti-Foxp3-Alexa Fluor 488 (clone 22F6, Biolegend), anti-Tbet-Pacific Blue (clone 4B10, Biolegend), anti-RORγ-PE (clone B2D, eBioscience), anti-PLZF-PerCP/Cy5.5 (clone 9E12, Biolegend), anti-CD1d-PE (clone 1B1, eBioscience), anti-IFNγ-PE (clone XMG1.2, BD Biosciences), and anti-TNFα-PerCP/Cy5.5 (clone MP6-XT22, Biolegend).
The following markers were used for identifying different immune cell subsets: TCRβ^+CD1d-Teteramer^+ for NKT cells, CD3^+CD4^hi for hepatic CD4^+ T cells, CD3^+CD8^+ for CD8^+ T cells, CD3^−CD19^+ for B cells, CD3^−CD49b^+ for NK cells, CD3^+TCRγ/δ^+ for γ/δ T cells, CD11b^+Ly6G^+Ly6C^lo for G-MDSC. Absolute numbers were calculated by multiplying frequencies obtained from flow cytometry by the total live mononuclear cell count, and then divided by liver weight.
Background: In flow cytometry, cells or beads pass a laser one at a time.

The test system of test [4] is Clostridum Cluster XIVa. The test is described as follows: Stool levels of Clostridium Cluster XIVa by real-time PCR. Particulars: single antibiotic administration. The test is classed as in vivo, mice. As to the method:
FIG. 31 is a dot plot showing the stool levels of Clostridum Cluster XIVa from single antibiotic administration measured by real-time PCR. Mice were administered vancomycin, neomycin, cefoparazone or H2O. n=4 for H2O, 10 for vancomycin, 5 for neomycin, p<0.05, one-way ANOVA.
The 7α-dehydroxylation reaction is the most quantitatively important process performed by the gut bacteria in the production of secondary bile acids. This multistep biochemical process is restricted to a narrow phylogenetic group of gram-positive bacterial species belonging to the Clostridium cluster XIV.

In test [5] the test system is stool bacteria. The test is described as follows: Stool bacteria analysis by 16S rRNA sequencing. The test is classed as in vivo, mice. Here is the method: FIG. 33A is a line graph showing stool bacteria analysis performed by 16S rRNA sequencing, in accordance with embodiments of the invention. Five week old mice were administered vancomycin for one week. Then vancomycin was stopped, and mice were given oral gavage of C. scindens or vehicle (cessation). Measurements were taken twenty-four hours after gavage. Alpha diversity is shown.
FIG. 33B is a dot plot showing stool bacteria analysis performed by 16S rRNA sequencing, in accordance with embodiments of the invention. Five week old mice were administered vancomycin for one week. Then vancomycin was stopped, and mice were given oral gavage of C. scindens or vehicle (cessation). Measurements were taken twenty-four hours after gavage. Beta diversity is shown.
Mice were fed with vancomycin in drinking water (Hospira, 0.5 g/L) for one week. Fresh antibiotic water was replaced every other day. One week later vancomycin was stopped, and the mice were given oral gavage of 10^9 C. scindens or vehicle (anaerobic glycerol) every day for 5 days. C. scindens was purchased from ATCC (35704), and grown under anaerobic conditions. One day after gavage, the colonization of C. scindens were confirmed by real-time PCR using primers specific for C. scindens.
Mouse stool DNA extraction and 16S V4 tregion amplification were performed on the liquid handling robots (epMotion 5075 and epMotion 5073, Eppendorf, Hamburg, Germany). The V4 region of the 16S rDNA gene (515F-806R) was sequenced, generating partially overlapping, paired-end reads on the Illumina MiSeq platform (Illumina, San Diego, Calif., USA). After quality control filtering, a total of 3,979,728 reads were processed with an average of 132,657 reads per sample. The demultiplexed FASTQ files containing the 16S rRNA gene sequences were filtered for chimeric sequences using the USEARCH (Edgar, Bioinformatics, 26: 2460-2461 (2010), incorporated by reference herein; version 8.1.1831) utility's UCHIME implementation and the ‘gold’ database (version microbiomeutil-r20110519). The reads were then binned into Operational Taxonomic Units (OTUs) at 97% similarity using USEARCH's cluster_otus command. The OTUs thus obtained were classified and aligned using QIIME (Caporaso et al., Nat. Methods, 7: 335-336 (2010), incorporated by reference herein; version 1.9.1) scripts. The assign_taxonomy.py script was used to assign taxonomy using the default RDP method (Wang et al., Appl. Environ. Microbiol., 73: 5261-5267 (2007), incorporated by reference herein) and the default GreenGenes database (DeSantis et al., Appl. Environ. Microbiol., 72: 5069-5072 (2006), incorporated by reference herein). This provided insight into the larger trends at higher taxonomic levels (such as order Clostridiales).
Next, the possible role of Clostridium species on liver NKT cell accumulation was tested in a colonization experiment. Clostridium scindens was chosen because it is commonly found in both mice and human and has a conserved bai (“bile acid inducible”) gene operon for the 7α-dehydroxylation reaction. Mice were fed with vancomycin for one week to induce hepatic NKT cells, then vancomycin was stopped, and the mice were given C. scindens or vehicle. The successful colonization with Clostridium scindens was confirmed (FIG. 32). One day after oral gavage, fecal bacterial were analyzed by 16S rRNA sequencing (FIGS. 33A and 33B, Table 1).

For test [6] the following is noted: oral vancomycin, cited from earlier work.
For test [7] the following is noted: reported; cited from earlier work.
For test [8], the system named is CXCL16. Description: CXCL16 mRNA in primary murine LSECs administered bile acids. The class given is cell-based, mice. Conditions: primary murine LSECs in vitro, 24 hours.
Excerpt: FIG. 28E is a dot plot showing CXCL16 mRNA levels of isolated LSECs administered different bile acids, in accordance with embodiments of the invention. n=5, p<0.05, one-way ANOVA.
FIG. 28F is a dot plot showing CXCL16 mRNA levels of isolated LSECs administered a combination of T-b-MCA with T-w-MCA or ω-MCA. n=5, p<0.05, one-way ANOVA.
as §1, with “PCR.” for “PCR. Taurocholic acid (TCA), chenodeoxycholic acid (CDCA), deoxycholic acid (DCA), and taurodeoxycholic acid (TDCA) were purchased from Sigma (now Millpore-Sigma, St. Louis, Mo., USA).”

The mark [9] stands for this setting: fecal bacteria, one day after oral gavage.

Consider `C[C@H](CCC(=O)O)[C@H]1CC[C@H]2[C@@H]3[C@H](O)C[C@@H]4C[C@H](O)CC[C@]4(C)[C@H]3CC[C@]12C` [CDCA, chenodeoxycholic acid], for which the “cxcl16 mRNA expression” value in test [1] was “induced”. The “hepatic NKT accumulation” value in test [2] is reported as “enhanced NKT cell accumulation”.

As to `CN[C@H](CC(C)C)C(=O)N[C@H]1C(=O)N[C@@H](CC(N)=O)C(=O)N[C@H]2C(=O)N[C@H]3C(=O)N[C@H](C(=O)N[C@H](C(=O)O)c4cc(O)cc(O)c4-c4cc3ccc4O)[C@H](O)c3ccc(c(Cl)c3)Oc3cc2cc(c3O[C@@H]2O[C@H](CO)[C@@H](O)[C@H](O)[C@H]2O[C@H]2C[C@](C)(N)[C@H](O)[C@H](C)O2)Oc2ccc(cc2Cl)[C@H]1O` [vancomycin], in test [3], the “hepatic CD4+ or CD8+ T cells” value is on record as “No significant changes” and the “hepatic NKT cells” value is “sufficient to increase hepatic NKT cells”. Also, in test [4], the Clostridium in stool result is “depleted Clostridium”. Besides, in test [5] (setting [9]), the Bacteroidales is recorded as 0.0%, the Burkholderiales worked out at 4.4%, the Clostridiales was 3.9% and the Enterobacteriales came to 10.7%. Further, in test [5] (setting [9]), the Lactobacillales was 43.7% and the Verrucomicrobiales is given as 34.3%. In test [5] (vancomycin compared to H2O group, C. scindens gavage after vancomycin), the “change of stool bacteria populations, in words” value was “reduction of Clostridiales and Bacteroidales but an expansion of Verrucomicrobiales”. Moreover, the “fecal secondary bile acids” value in test [6] (obese individuals) was “decreased fecal secondary bile acids”. Besides, in test [6] (postprandial), the “primary bile acids in plasma” value is reported as “postprandial increase in primary bile acids in plasma”. For the same compound, the “bile acids in the gut” value in test [7] was “deplete secondary bile acids and increase primary bile acids in the gut”.

Turning to `C[C@H](CCC(=O)NCCS(=O)(=O)O)[C@H]1CC[C@H]2[C@@H]3[C@@H](O)[C@@H](O)[C@@H]4C[C@H](O)CC[C@]4(C)[C@H]3CC[C@]12C` [T-β-MCA, Tauro-β-muricholic acid], the “cxcl16 mRNA expression” value in test [8] is reported as “induced”.

On to neomycin, for which, in test [3], the “hepatic CD4+ or CD8+ T cells” value is “No significant changes” and the “hepatic NKT cells” value is “little effect”. Moreover, in test [4], the Clostridium in stool entry is recorded as “could not remove Clostridium”.

Turning to `CCN1CCN(C(=O)N[C@@H](C(=O)N[C@@H]2C(=O)N3C(C(=O)O)=C(CSc4nnnn4C)CS[C@H]23)c2ccc(O)cc2)C(=O)C1=O` [cefoperazone], in test [3], the “hepatic CD4+ or CD8+ T cells” value is on record as “No significant changes” and the “hepatic NKT cells” value is given as “increase of liver NKT cells”. The “bile acids in the gut” value in test [7] was “deplete secondary bile acids and increase primary bile acids in the gut”.

For the compound `C[C@H](CCC(=O)NCCS(=O)(=O)O)[C@H]1CC[C@H]2[C@@H]3[C@H](O)C[C@@H]4C[C@H](O)CC[C@]4(C)[C@H]3C[C@H](O)[C@]12C` [TCA, Taurocholic acid], the “cxcl16 mRNA expression” value in test [1] was “induced”.
